Results taken from patent publication US20150307938A1, “METHOD TO IDENTIFY A NOVEL CLASS OF IMMUNOLOGIC ADJUVANTS” (Lancell, L.L.C., priority 2011, published 2015).
“Also recorded” adds a separate entry of the source.

How the values were obtained:
ear skin = assay: Cutaneous lymphoid stress response gene expression after topical DBP on ear skin; format: in vivo; conditions: ear skin of C57B1/6 mice
Source text: The cutaneous lymphoid stress response bears a strong resemblance to the effects of topical DBP. DBP is required for the induction of contact hypersensitivity to FITC in mice, a form of allergic response. Topical DBP induces the migration of Langerhans cells from the epidermis to draining lymph nodes. And, topical DBP acts as an adjuvant for antigens injected into the skin, including endotoxin-free OVA. One might expect, therefore, that topical DBP would cause the same effects as tape stripping or occlusive skin patch immunization. To our surprise, none of the effects that characterize the DETC-dependent cutaneous lymphoid stress-surveillance response are found in the response to DBP.

Fluzone [1] = test system: Fluzone; design: species or system mice; conditions: mouse, in vivo
Fluzone [2] = test system: Fluzone; design: species or system C57BL/6 mice; conditions: mouse, in vivo
skin dendritic cells = assay: Flow cytometric analysis of Ahr−/− response to topical DBP

Which “expression of H60a” value (ear skin) does the source give for `CCCCOC(=O)c1ccccc1C(=O)OCCCC` [DBP, dibutylphthalate] here?
The value was “no statistically significant increase”.

What about the “expression of Il-13” value (ear skin) of the same compound?
The value was “no statistically significant increase”.

What about the “expression of Il-25” value (ear skin) of the same compound?
The value was “no statistically significant increase”.

And the “expression of KLrk1 (encodes NKG2D)” value (ear skin)?
Its value is “no statistically significant increase”.

And the “expression of Rae-1” value (ear skin)?
The value was “no statistically significant increase; also recorded: actually diminished”.

And the “IgA Ab in bronchoalveolar lavage” value (Fluzone [1])?
The value was “highly significantly increased”.

And the “IgA Ab in bronchoalveolar lavage, persistence” value (Fluzone [1])?
Its value is “remained undiminished”.

And the “Serum antibodies of all IgG isotypes” value (Fluzone [1])?
The value was “highly significantly increased”.

And the “HAI titer / adjuvant effect with the same dose of Fluzone” value (Fluzone [2])?
The value was “majorly improved”.

And the E/C (skin dendritic cells; Ahr−/− mice)?
The E/C was 6.375.

And the E/C (skin dendritic cells; B6 mice)?
The E/C was 5.97.

What about the “skin dendritic cell response in AhR−/− mice” value (skin dendritic cells; topical application) of the same compound?
The value was “no evidence for any impairment”.
